In US7560466B2, “Methods of treating or preventing autoimmune diseases with 2,4-pyrimidinediamine compounds” (Rigel Pharmaceuticals, Inc., priority 2003, dated 2009):
Counter-ions that a name gives are not always drawn. Like-named read-outs stand apart in the source and are kept apart here.

Test system: cultured human mast cells (CHMC), IgE-induced degranulation
Experiment: CHMC low cell density IgE activation: tryptase assay
Assay type: cell-based
Summary of the method: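 Cord-blood CD34+-derived mucosal mast cells (SCF/IL-6 medium), 1000–1500 cells/well, preincubated with compound 1 h at 37°C, then anti-IgE stimulated 30 min at 37°C.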

[1] = low cell density CHMC, 3-point, read-out: LD Tryptase, CHMC, IgE, 3pt
[2] = low cell density CHMC, 8-point, read-out: LD Tryptase, CHMC, IgE, 8pt
[3] = low cell density CHMC, 3pt, read-out: LD Tryptase, CHMC, IgE, 3pt
[4] = low cell density CHMC, 8pt, read-out: LD Tryptase, CHMC, IgE, 8pt
[5] = CHMC low cell density, 8pt, read-out: LD Tryptase, CHMC, IgE, 8pt
[6] = CHMC low cell density, 3pt, read-out: LD Tryptase, CHMC, IgE, 3pt
[7] = Homo sapiens, Mast cell, low cell density CHMC, 3pt, read-out: LD Tryptase, CHMC, IgE, 3pt

Compound	IC50 [5] [µM]	IC50 [6] [µM]	other results
COc1cc(Nc2ncc(F)c(Nc3ccc4c(n3)NC(=O)[C@H](C)O4)n2)cc(OC)c1OC [Compound 1082, (S)-5-Fluoro-N4-(2-methyl-3-oxo-2H,4H-5-pyrid[1,4]oxazin-6-yl)-N2-(3,4,5-trimethoxyphenyl)-2,4-pyrimidinediamine]	–	–	IC50 [1]: < 10 µM; IC50 [2]: < 10 µM
Fc1cnc(Nc2cccc(-c3cnco3)c2)nc1Nc1ccc2c(n1)NCCO2 [Compound 1132, N4-(3,4-Dihydro-2H,4H-5-pyrid[1,4]oxazin-6-yl)-5-fluoro-N2-[3-(oxazol-5-yl)phenyl]-2,4-pyrimidinediamine]	–	–	IC50 [2]: < 10 µM
COc1ccc(Nc2ncc(F)c(Nc3ccc4c(c3)NC(=O)C(C)(C)S4)n2)cc1F [Compound 299]	–	–	IC50 [3]: < 10 µM; IC50 [4]: < 10 µM
COc1ccc(Nc2ncc(F)c(Nc3ccc4c(c3)NC(=O)C(C)(C)S4(=O)=O)n2)cc1Cl [Compound 276]	–	–	IC50 [4]: < 10 µM
COc1ccc(Nc2ncc(F)c(Nc3ccc4c(c3)NC(=O)C(C)(C)S4)n2)cc1Cl [Compound 289]	–	–	IC50 [4]: < 10 µM
CCOC(=O)N1CCN(c2cccc(Nc3ncc(F)c(Nc4ccc5c(n4)NC(=O)CO5)n3)c2)CC1 [Compound 1070, N2-[3-(4-Ethoxycarbonylpiperazino)phenyl]-5-fluoro-N4-(3-oxo-2H,4H-5-pyrid[1,4]oxazin-6-yl)-2,4-pyrimidinediamine]	–	–	IC50 [2]: < 10 µM
C[C@H]1Oc2ccc(Nc3nc(Nc4cccc(CN)c4)ncc3F)cc2NC1=O [Compound 1280]	–	–	IC50 [3]: < 10 µM; IC50 [4]: < 10 µM
Cc1cc(Nc2ncc(F)c(Nc3ccc4c(n3)NC(=O)C(C)(C)O4)n2)cc(C)c1Cl [Compound 684, N2-(4-Chloro-3,5-dimethylphenyl)-N4-(2,2-dimethyl-3-oxo-4H-5-pyrid[1,4]oxazin-6-yl)-5-fluoro-2,4-pyrimidinediamine p-Toluenesulfonic Acid Salt]	–	< 10	–
CC1(C)Oc2ccc(Nc3nc(Nc4ccc5c(cnn5CCCN5C(=O)CCC5=O)c4)ncc3F)nc2NC1=O [Compound 857, N4-(2,2-Dimethyl-3-oxo-4H-5-pyrid[1,4]oxazin-6-yl)-5-fluoro-N2-[1-[3-(N-succinimidopropyl)]indazol-5-yl]-2,4-pyrimidinediamine]	< 10	< 10	–
N4-[benzoxathiazin-3(4H)-one-6-yl]2-chloro-5-fluoro-4-pyrimidinea mine [Compound 319]	–	–	IC50 [3]: < 10 µM
CCOC(=O)N1CCN(c2ccc(Nc3ncc(F)c(Nc4ccc5c(n4)NC(=O)C(C)(C)O5)n3)cc2)CC1 [Compound 1077, N4-(2,2-Dimethyl-3-oxo-4H-5-pyrid [1,4]oxazin-6-yl)-N2-[4-(4-ethoxycarbonylpiperazino)phenyl]-5-fluoro-2,4-pyrimidinediamine]	–	–	IC50 [2]: < 10 µM
CNC(=O)COc1cccc(Nc2ncc(F)c(Nc3ccc4c(c3)NC(=O)C(C)(C)O4)n2)c1C [Compound 1067, N4-(2,2-Dimethyl-3-oxo-4H-benz[1,4]oxazin-6-yl)-5-fluoro-N2-[2-methyl-3-(N-methylamino)carbonylmethyleneoxyphenyl]-2,4-pyrimidinediamine]	–	–	IC50 [2]: < 10 µM
C[C@@H]1Oc2ccc(Nc3nc(Nc4ccc(C(=O)N=CC(=O)O)cc4)ncc3F)cc2NC1=O [Compound 1264]	–	–	IC50 [7]: > 10 µM
CNC(=O)COc1cccc(Nc2ncc(F)c(Nc3ccc4c(n3)NC(=O)CO4)n2)c1C [Compound 1068, 5-Fluoro-N2-[2-methyl-3-(N-methylamino)carbonylmethyleneoxyphenyl]-N4-(3-oxo-2H,4H-5-pyrid[1,4]oxazin-6-yl)-2,4-pyrimidinediamine]	–	–	IC50 [2]: < 10 µM
CC1(C)Oc2ccc(Nc3nc(Nc4ccc5c(cnn5CCCN5C(=O)CCCC5=O)c4)ncc3F)nc2NC1=O [Compound 862, N4-(2,2-Dimethyl-3-oxo-4H-5-pyrid[1,4]oxazin-6-yl)-N2-[1-[3-(2,6-dioxopiperidino]propyl)indazol-5-yl]-5-fluoro-2,4-pyrimidinediamine]	< 10	< 10	–
N2-(2-Aminocarbonylphenyl)-N4-(2,2-dimethyl-3-oxo-4H-5-pyrid[1,4]oxazin-6-yl)-5-fluoro-2,4-pyrimidinediamine [Compound 1316]	–	–	IC50 [3]: < 10 µM; IC50 [4]: > 10 µM
CN(c1ccc2c(c1)OCCO2)c1nc(NN)ncc1F [Compound 533, N4-(3,4-Ethylenedioxyphenyl)-5-fluoro-N4-methyl-2-hydrazine-4-pyrimidinea mine]	–	> 10	–
COc1c(C)cc(Nc2ncc(F)c(Nc3ccc4c(n3)NC(=O)CO4)n2)cc1C [Compound 1059, N2-(3,5-Dimethyl-4-methoxyphenyl)-5-fluoro-N4-(3-oxo-2H,4H-5-pyrid[1,4]oxazin-6-yl)-2,4-pyrimidinediamine]	–	–	IC50 [2]: < 10 µM
COc1cc(Nc2ncc(F)c(Nc3ccc4c(n3)NC(=O)C(C)(C)O4)n2)cc(OC)c1OC.O=S(=O)(O)c1ccc(O)cc1 [Compound 676, N4-(2,2-Dimethyl-3-oxo-4H-5-pyrid[1,4]oxazin-6-yl)-5-fluoro-N2-(3,4,5-trimethoxyphenyl)-2,4-pyrimidinediamine 4-Hydroxybenzenesulfonic Acid Salt]	< 10	< 10	–
CC1(C)Oc2ccc(Nc3nc(Nc4ccc(-c5ncco5)cc4)ncc3F)nc2NC1=O [Compound 1035, N4-(2,2-Dimethyl-3-oxo-4H-5-pyrid[1,4]oxazin-6-yl)-5-fluoro-N2-[4-(oxazol-2-yl)phenyl]-2,4-pyrimidinediamine]	–	–	IC50 [2]: > 10 µM
CC1(C)Oc2ccc(Nc3nc(Nc4cc(Cl)c(O)c(Cl)c4)ncc3F)nc2NC1=O [Compound 686, N4-(2,2-Dimethyl-3-oxo-4H-5-pyrid[1,4]oxazin-6-yl)-N2-(3,5-dichloro-4-hydroxyphenyl)-5-fluoro-2,4-pyrimidinediamine]	< 10	< 10	–
CC(=O)N1CCN(c2cccc(Nc3ncc(F)c(Nc4ccc5c(n4)NCCO5)n3)c2)CC1 [Compound 1137, N2-[3-(4-Acetylpiperazino)phenyl]-N4-(3,4-dihydro-2H,4H-5-pyrid[1,4]oxazin-6-yl)-5-fluoro-2,4-pyrimidinediamine]	–	–	IC50 [1]: < 10 µM; IC50 [2]: < 10 µM
Cc1n[nH]c2cc(Nc3ncc(F)c(Nc4ccc5c(n4)NC(=O)C(C)(C)O5)n3)ccc12 [Compound 813, N4-(2,2-Dimethyl-3-oxo-4H-5-pyrid[1,4]oxazin-6-yl)-5-fluoro-N2-(3-methyl-1H-indazol-6-yl)-2,4-pyrimidinediamine]	< 10	–	–
C[C@H]1Oc2ccc(Nc3nc(Nc4ccc(C(=O)N=CC(=O)O)cc4)ncc3F)cc2NC1=O [Compound 1267]	–	–	IC50 [7]: > 10 µM

Further lines, with some results ahead:

IC50 [5] [µM]	IC50 [6] [µM]	Compound	other results
< 10	–	COCCCn1ncc2cc(Nc3ncc(F)c(Nc4ccc5c(n4)NC(=O)C(C)(C)O5)n3)ccc21 [Compound 814, N4-(2,2-Dimethyl-3-oxo-4H-5-pyrid[1,4]oxazin-6-yl)-5-fluoro-N2-[1-(3-methoxypropyl)indazol-5-yl]-2,4-pyrimidinediamine]	–
< 10	–	Cn1c(CN2CCOCC2)nc2cc(Nc3ncc(F)c(Nc4ccc5c(c4)NC(=O)C(C)(C)O5)n3)ccc21 [Compound 956, N4-(2,2-Dimethyl-3-oxo-4H-benz[1,4]oxazin-6-yl)-5-fluoro-N2-[1-methyl-2-(4-morpholinomethyl)benzimidazol-5-yl]-2,4-pyrimidinediamine]	–
< 10	–	C[C@@H]1Oc2ccc(Nc3nc(Nc4ccc5c(cnn5CCCN5C(=O)c6ccccc6C5=O)c4)ncc3F)cc2NC1=O [Compound 818, (S)-5-Fluoro-N4-(2-methyl-3-oxo-2H,4H-benz[1,4]oxazin-6-yl)-N2-[1-[3-(N-phthalimidopropyl)]indazol-5-yl]-2,4-pyrimidinediamine]	–
< 10	–	COc1c(C)cc(Nc2ncc(F)c(Nc3ccc4c(c3)NCC(C)(C)O4)n2)cc1Cl [Compound 1001, N2-(3-Chloro-4-methoxy-5-methylphenyl)-N4-(3,4-dihydro-2,2-dimethyl-4H-benz[1,4]oxazin-6-yl)-5-fluoro-2,4-pyrimidinediamine]	–
< 10	–	N4-(2,2-Dimethyl-3-oxo-4H-benz[1,4]oxazin-6-yl)-5-fluoro-[1-(2-hydroxymethyl)-2-trifluoromethylbenzimidazol-5-yl]-2,4-pyrimidinediamine [Compound 922]	–
< 10	< 10	C[C@@H]1Oc2ccc(Nc3nc(Nc4ccc5c(c4)nc(CN4CCOCC4)n5C)ncc3F)cc2NC1=O [Compound 957, (S)-5-Fluoro-N2-[1-methyl-2-(4-morpholinomethyl)benzimidazol-5-yl]-N4-(2-methyl-3-oxo-2H,4H-benz[1,4]oxazin-6-yl)--2,4-pyrimidinediamine]	–
< 10	< 10	N4-(2,2-Dimethyl-3-oxo-4H-benz[1,4]oxazin-6-yl)-5-fluoro-N2-{1-methyl-2-[(methylsulfonyl)methyl]benzimidazol-5-yl}-2,4-pyrimidinediamine [Compound 967]	–
< 10	< 10	Cn1c(CS(C)(=O)=O)nc2cc(Nc3ncc(F)c(Nc4ccc5c(n4)NC(=O)C(C)(C)O5)n3)ccc21 [Compound 969, N4-(2,2-Dimethyl-3-oxo-4H-5-pyrido[1,4]oxazin-6-yl)-5-fluoro-N2-{1-methyl-2-[(methylsulfonyl)methyl]benzimidazol-5-yl}-2,4-pyrimidinediamine]	–
< 10	< 10	C[C@@H]1Oc2ccc(Nc3nc(Nc4ccc5c(c4)nc(N4CCOCC4)n5C)ncc3F)cc2NC1=O [Compound 945, (S)-5-Fluoro-N2-[1-methyl-2-(4-morpholino)benzimidazol-5-yl]-N4-(2-methyl-3-oxo-2H,4H-benz[1,4]oxazin-6-yl)-2,4-pyrimidinediamine]	–
